Format in all cases: cell-based
One assay concerns the target T1, mouseP2X7 (Mus musculus, UniProt Q9Z1M0).
T1 construct: expressed in transfected cells; host or cells: HEK-293
T1 sequence (Q9Z1M0 1-595): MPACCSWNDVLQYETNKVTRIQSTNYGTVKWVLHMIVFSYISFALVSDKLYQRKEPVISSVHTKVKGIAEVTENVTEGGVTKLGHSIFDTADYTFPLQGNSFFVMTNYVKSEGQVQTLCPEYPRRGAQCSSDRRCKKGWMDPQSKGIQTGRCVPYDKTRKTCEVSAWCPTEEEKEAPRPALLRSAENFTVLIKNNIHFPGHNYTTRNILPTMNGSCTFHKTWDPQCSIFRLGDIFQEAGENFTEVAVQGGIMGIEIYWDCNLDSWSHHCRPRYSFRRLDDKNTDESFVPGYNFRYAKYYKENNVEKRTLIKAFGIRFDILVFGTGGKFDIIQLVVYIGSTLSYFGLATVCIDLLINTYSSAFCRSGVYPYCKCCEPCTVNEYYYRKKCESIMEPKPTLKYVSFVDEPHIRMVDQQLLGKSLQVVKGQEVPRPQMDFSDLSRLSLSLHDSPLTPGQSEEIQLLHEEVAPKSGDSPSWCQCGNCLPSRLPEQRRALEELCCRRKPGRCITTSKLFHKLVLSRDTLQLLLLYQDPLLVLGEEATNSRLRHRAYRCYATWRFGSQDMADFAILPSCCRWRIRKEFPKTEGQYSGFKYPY
Briefly: P2X7 channel calcium-influx assay (Fluo-8, FLIPR TETRA), mouse P2X7. The following applies: HEK-293 cells stably transfected with P2X7; Bz-ATP at EC80; low divalent cation buffer; read-out: mouseP2X7 (activity range). As to the method: (§1) Extracellular binding of Bz-ATP to P2X7 receptor opens the channel and allows Ca^2+ influx into the cells. This Ca^2+ entry was measured in HEK-293 cells stably transfected with P2X7 receptor using Screen Quest™ Fluo-8 No Wash Calcium Assay Kit (AAt Bioquest®, cat. 36316). Once inside the cell, the lipophilic blocking groups of Fluo-8 are cleaved by non-specific cell esterases, resulting in a negatively-charged fluorescent dye that stays inside cells. Its fluorescence increases upon binding to calcium. When HEK-293/P2X7 cells are stimulated with Bz-ATP, Ca^2+ enters the cells and the fluorescence of Fluo-8 NW increases. The dye has an absorption spectrum compatible with excitation at 488 nm by argon laser sources and its emission wavelength is in the range of 515-575 nm.
(§2) HEK-293 cells stably transfected with P2X7 receptor were seeded overnight in growth medium at 10,000 to 20,000 cells/well in 384-well plate. 24 hours later, the medium was removed, and the cells were pre-loaded at RT for 1 hour with 20 μL/w of Fluo-8 NW. Then 10 μL/w of test compounds and reference antagonist A438079 at 3×-concentration were injected with the FLIPRTETRA and the kinetic response over a period of five minutes was monitored. A second injection of 15 μL/w of 3× reference activator (Bz-ATP at EC80) was performed with the FLIPR TETRA and the signal of the emitted fluorescence was recorded for additional three minutes. All the experiment was carried out in a Low Divalent Cation Assay Buffer (0.3 mM Ca^2+ and 0 mM Mg^2+). The effect of the test compounds was measured as percent inhibition vs the reference antagonist and IC50 values were calculated accordingly. Here are reported the potency ranges as A, B, C and D, where A is <200 nM; B is 200 nM-1 μM, C is 1-10 μM, D is 10-30 μM.

The target in another assay is T2, humanP2X7 (Homo sapiens, UniProt Q99572).
T2 construct: expressed in transfected cells; host or cells: HEK-293
T2 sequence (Q99572 1-595): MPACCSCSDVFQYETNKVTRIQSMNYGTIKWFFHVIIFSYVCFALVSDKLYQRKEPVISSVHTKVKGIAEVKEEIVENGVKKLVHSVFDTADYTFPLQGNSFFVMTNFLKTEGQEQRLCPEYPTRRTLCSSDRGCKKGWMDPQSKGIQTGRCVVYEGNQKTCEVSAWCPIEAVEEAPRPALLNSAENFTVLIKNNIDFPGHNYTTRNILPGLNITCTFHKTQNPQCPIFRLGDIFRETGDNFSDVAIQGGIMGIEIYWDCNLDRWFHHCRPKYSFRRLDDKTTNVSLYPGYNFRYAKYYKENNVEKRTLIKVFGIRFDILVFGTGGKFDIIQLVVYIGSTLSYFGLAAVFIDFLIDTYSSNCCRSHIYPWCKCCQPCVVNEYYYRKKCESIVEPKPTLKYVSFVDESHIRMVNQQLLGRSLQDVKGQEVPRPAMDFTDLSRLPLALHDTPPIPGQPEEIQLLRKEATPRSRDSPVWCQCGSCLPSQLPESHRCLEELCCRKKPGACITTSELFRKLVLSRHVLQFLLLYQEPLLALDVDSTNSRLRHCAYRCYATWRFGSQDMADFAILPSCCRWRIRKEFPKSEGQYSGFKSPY
Briefly: P2X7 channel calcium-influx assay (Fluo-8, FLIPR TETRA), human P2X7. The following applies: HEK-293 cells stably transfected with P2X7; Bz-ATP at EC80; low divalent cation buffer; read-out: humanP2X7 (activity range). Here is the method:
as §1, §2

In another assay the target is T3, ratP2X7 (Rattus norvegicus, UniProt Q64663).
T3 construct: expressed in transfected cells; host or cells: HEK-293
T3 sequence (Q64663 1-595): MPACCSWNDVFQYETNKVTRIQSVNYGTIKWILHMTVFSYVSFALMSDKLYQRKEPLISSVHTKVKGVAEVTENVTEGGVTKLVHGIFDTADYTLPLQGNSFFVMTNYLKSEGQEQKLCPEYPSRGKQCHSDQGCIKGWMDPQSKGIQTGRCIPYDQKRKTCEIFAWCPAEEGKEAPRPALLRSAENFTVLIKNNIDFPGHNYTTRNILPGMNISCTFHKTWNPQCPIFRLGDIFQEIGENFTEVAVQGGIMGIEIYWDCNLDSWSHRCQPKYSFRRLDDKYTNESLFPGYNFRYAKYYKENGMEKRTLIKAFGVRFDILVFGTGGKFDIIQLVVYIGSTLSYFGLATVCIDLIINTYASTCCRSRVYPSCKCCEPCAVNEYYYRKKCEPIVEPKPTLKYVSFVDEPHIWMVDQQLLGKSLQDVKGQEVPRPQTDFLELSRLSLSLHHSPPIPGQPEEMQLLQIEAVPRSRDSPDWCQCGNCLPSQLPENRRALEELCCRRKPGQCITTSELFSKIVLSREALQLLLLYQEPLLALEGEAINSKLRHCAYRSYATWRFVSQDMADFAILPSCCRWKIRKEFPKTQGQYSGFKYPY
Briefly: P2X7 channel calcium-influx assay (Fluo-8, FLIPR TETRA), rat P2X7. To be noted: HEK-293 cells stably transfected with P2X7; Bz-ATP at EC80; low divalent cation buffer; read-out: ratP2X7 (activity range). Here is the method:
as §1, §2

Another assay has as its target T4, human P2X7 channel (Homo sapiens, UniProt Q99572).
T4 construct: expressed in transfected cells; host or cells: HEK-293
T4 sequence (Q99572 1-595): T2 sequence (Q99572 1-595)
Put plainly: human P2X7 channel assay by automated patch-clamp (QPatch 16X). The following applies: HEK-293 cells expressing P2X7; current evoked by 100 microM BzATP; whole-cell, held at -80 mV; read-out: human Q-Patch (activity range). Here is the method:
In order to directly monitor the block of P2X7 channel, an electrophysiological assay was developed and implemented on the QPatchl6X automated electrophysiology instrument.
HEK-293 cells expressing the P2X7 channels were cultured in modified EMEM.
72 hours before experiment, 5 million cells were seeded onto T225 flasks. Just before the experiment cells were washed twice, detached from the flask with trypsin-EDTA, re-suspended in the suspension solution and placed on the QPatch 16x.
The compounds (20 mM in a 100% DMSO) stored at −20° C. were prepared the day of the experiment (a first dilution 1:20 in 100% DMSO to prepare a 1 mM stock solution, then a 1 microM solution in external solution+a serial dilution 1:10).
The standard whole-cell voltage clamp experiments were performed at room temperature. From these experiments the multihole technology was used and the data were sampled at 2 KHz.
The intracellular solution contained (mM) 135 CsF, 10 NaCl, 1 EGTA, 10 HEPES, (pH 7.2 with CsOH) whereas the extracellular contained (mM) 145 NaCl, 4 KCl, 0.5 MgCl2, 1 CaCl2, 10 HEPES, 10 Glc (pH 7.4 with NaOH).
After establishment of the seal and the passage in the whole cell configuration, the cells were held at −80 mV. The P2XR7 current was evoked by applying 100 microM of BzATP alone (4 times) and then in the presence increasing concentrations of the compound under investigation (1, 10, 100 and 1000 nM).
The pre-incubation periods 5 to 8 contain increasing concentrations of the compound of interest (1, 10, 100 and 1000 nM), as illustrated in FIGURE (application protocol).
The maximal inward current evoked by BzATP in absence or presence of increasing concentrations of the compounds under investigation was measured and normalized. The potential […] effect was measured as % of control and as IC50 determined fitting the dose-response curves data with the following equation:
Here are reported the potency ranges as A, B, C and D, where A is <10 nM; B is 10 nM-100 nM, C is 0.1-1 μM, D is 1-10 μM.
Background: In patch-clamp work, channel activity is measured electrically.

As to `Cn1nc(Cc2c(F)cccc2Cl)n(CC2CCC(F)(F)CC2)c1=O` [Example 3, 5-(2-chloro-6-fluorobenzyl)-4-((4,4-difluorocyclohexyl)methyl)-2-methyl-2,4-dihydro-3H-1,2,4-triazol-3-one], the IC50 at mouseP2X7 was 200 to 1000 nM; on humanP2X7, less than 200 nM; at ratP2X7 it was less than 200 nM; at human P2X7 channel, 10 to 100 nM.
In the case of `Cn1nc(Cc2c(F)cccc2Cl)n(CC2CC3C(C2)C3(F)F)c1=O` (stereo not shown) [Example 5, 5-(2-chloro-6-fluorobenzyl)-4-((6,6-difluorobicyclo[3.1.0]hexan-3-yl)methyl)-2-methyl-2,4-dihydro-3H-1,2,4-triazol-3-one], the IC50 at mouseP2X7 is 1000 to 10000 nM; on humanP2X7 it was 200 to 1000 nM; at ratP2X7, less than 200 nM; on human P2X7 channel it was 10 to 100 nM.
For `Cn1nc(Cc2ccc(F)cc2Cl)n(CC2CCCCCC2)c1=O` [Example 11, 5-(2-chloro-4-fluorobenzyl)-4-(cycloheptylmethyl)-2-methyl-2,4-dihydro-3H-1,2,4-triazol-3-one] the same measures were 200 to 1000 nM, less than 200 nM, less than 200 nM and 10 to 100 nM.
For `Cn1nc(Cc2c(F)cccc2Cl)n(CC2CCCCCC2)c1=O` [Example 12, 5-(2-chloro-6-fluorobenzyl)-4-(cycloheptylmethyl)-2-methyl-2,4-dihydro-3H-1,2,4-triazol-3-one] the same measures were less than 200 nM, less than 200 nM, less than 200 nM and less than 10 nM.
Consider `Cn1nc(CC2CCCCC2)n(Cc2ccnc(C(F)(F)F)c2)c1=O` [Example 13, 5-(cyclohexylmethyl)-2-methyl-4-((2-(trifluoromethyl)pyridin-4-yl)methyl)-2,4-dihydro-3H-1,2,4-triazol-3-one], for which the IC50 on mouseP2X7 is 10000 to 30000 nM; on humanP2X7, 10000 to 30000 nM; at ratP2X7, 10000 to 30000 nM; on human P2X7 channel it was 1000 to 10000 nM.
With `Cn1nc(Cc2c(F)cccc2Cl)n(CC2CCC3(CC2)CC3)c1=O` [Example 14, 5-(2-chloro-6-fluorobenzyl)-2-methyl-4-(spiro[2.5]octan-6-ylmethyl)-2,4-dihydro-3H-1,2,4-triazol-3-one], the IC50 was less than 200 nM on mouseP2X7, less than 200 nM at humanP2X7, less than 200 nM on ratP2X7 and less than 10 nM on human P2X7 channel.
For `Cn1nc(Cc2c(F)cccc2Cl)n(CCC2CCC(F)(F)CC2)c1=O` [Example 15, 5-(2-chloro-6-fluorobenzyl)-4-(2-(4,4-difluorocyclohexyl)ethyl)-2-methyl-2,4-dihydro-3H-1,2,4-triazol-3-one], the IC50 at mouseP2X7 is 1000 to 10000 nM; on humanP2X7, less than 200 nM; at ratP2X7 it was less than 200 nM; on human P2X7 channel, 10 to 100 nM.
For the compound `Cn1nc(Cc2c(F)cccc2Cl)n(CCC2CCC(C)(C)CC2)c1=O` [Example 16, 5-(2-chloro-6-fluorobenzyl)-4-(2-(4,4-dimethylcyclohexyl)ethyl)-2-methyl-2,4-dihydro-3H-1,2,4-triazol-3-one], the IC50 lay in the range of 1000 to 10000 nM at mouseP2X7, 200 to 1000 nM on humanP2X7, 200 to 1000 nM on ratP2X7 and 10 to 100 nM on human P2X7 channel.
On to `Cn1nc(Cc2ccccc2C(F)(F)F)n(CC2CCCCC2)c1=O` [Example 17, 4-(cyclohexylmethyl)-2-methyl-5-(2-(trifluoromethyl)benzyl)-2,4-dihydro-3H-1,2,4-triazol-3-one], for which the IC50 at mouseP2X7 is 1000 to 10000 nM; at humanP2X7, 200 to 1000 nM; on ratP2X7 it was less than 200 nM; at human P2X7 channel, 100 to 1000 nM.
For the compound `Cn1nc(Cc2ccccc2C(F)(F)F)n(CC2CCC(F)(F)CC2)c1=O` [Example 18, 4-((4,4-difluorocyclohexyl)methyl)-2-methyl-5-(2-(trifluoromethyl)benzyl)-2,4-dihydro-3H-1,2,4-triazol-3-one], the IC50 is 1000 to 10000 nM on mouseP2X7, less than 200 nM at humanP2X7, less than 200 nM at ratP2X7 and 10 to 100 nM on human P2X7 channel.

Values taken from patent US20240368092A1, “2,4-Dihydro-3H-1,2,4-Triazol-3-One P2X7 Antagonists” (Breye Therapeutics ApS, priority 2021, published 2024).
